# Source: US20250388604A1, “Compounds and Their Use as PDE4 Activators” (Mironid Limited, priority 2022, published 2025)
# Tested on: m-IMCD3 cells
# Assay: Inhibition of PGE2-stimulated in vitro cyst formation in m-IMCD3 cells
# Assay type: cell-based, mouse
# Conditions: 3 μM; mean cyst area, 100% for (DMSO + PGE2) and 0% for DMSO control; 6 days of culture
# Protocol: HEK 293 and MDCK cells (Public Health England, Cell Culture Collections) were maintained in Dulbecco's Modified Eagle's Medium (DMEM) supplemented with 10% (v/v) fetal bovine serum (FBS) (Seralab), 2 mM L-glutamine and 100 U/mL penicillin streptomycin cocktail (ThermoFisher); termed complete media. Clonal HEK 293 cell lines were maintained in complete media supplemented with 0.6 mg/ml G418 (Enzo Life Sciences). Mouse inner medullary collecting duct (m-IMCD3) cells [American Type Culture Collection (ATCC)] were maintained in media consisting of DMEM/Hams F-12 50/50 Mix (DMEM F12; Corning) supplemented with penicillin streptomycin cocktail (100 U/mL) and FBS (10% v/v) (DMEM F12-10% FBS).
# The mouse Inner Medullary Collecting Duct cell line (m-IMCD3) spontaneously forms cystic spheroids in 3D culture with a Type 1 collagen/Matrigel extracellular matrix. This process can be stimulated with agents which raise intracellular cAMP and is used as an in vitro model for the formation of cystic structures in the kidneys of patients with ADPKD.
# Rat Collagen I (Fisher Scientific) is prepared on ice by neutralising with 1M NaOH and diluting with a 2× volume of DMEM/F12+10% FBS. This is mixed 1:1.1 with ice cold Matrigel (Corning) for coating plates (coating mix), and 1:0.93 with Matrigel for cell plating (plating mix).
# The assay is conducted in the wells of a 96-well plate culture dish using a total volume of 130 μL of collagen/Matrigel/DMEM F12-10% FBS suspension in growth media for each matrix plug per individual well. Initially, 30 μL of collagen/Matrigel/DMEM F12-10% FBS (coating mix) is added into the well of a 96 well plate and the collagen is set to a gel by incubating at 37° C. for at least 15 minutes. A second layer of 100 μL collagen/Matrigel suspension (plating mix) containing m-IMCD3 cells (2.75×10^6 m-IMCD3 cells per 96-well plate) is layered over the coating mix and the collagen/Matrigel/cell mix again set to a gel by incubating at 37° C. Cell cultures are maintained at 37° C. in an atmosphere of 5% CO2, 95% air.
# Between 18 and 24 h after plating, test compound(s) as DMSO stock solutions [0.1% (v/v) final DMSO concentration] and PGE2 (100 nM final concentration) in DMEM F12-10% FBS are added in quadruplicate wells per condition. Media, together with the test compound and PGE2 are replenished after 2 or 3 days. After 6 days of culture z stack images of the wells are captured using the Nikon Eclipse Ti2-E microscope. Nikon General Analysis software is used to measure the following parameters in each well: the mean cyst area, the number of cysts, and the total cyst area.
# PDE4 long form activators inhibited in vitro cyst formation in m-IMCD3 cells. Data are shown in Table 4 as mean cyst area (%), compared to 100% for (DMSO+PGE2) and 0% for DMSO control.
row,Structure (SMILES),% Cyst area after incubation with 3 μM test compound [%]
1,"CC(C(=O)N1CCc2nc(N3C4CCC3CNC4)sc2C1)C(C)(C)C (single isomer, unassigned) [Example 158, 1-(2-(3,8-diazabicyclo[3.2.1]octan-8-yl)-6,7-dihydrothiazolo[5,4-c]pyridin-5(4H)-yl)-2,3,3-trimethylbutan-1-one]",7
2,"CC(C(=O)N1CCc2nc(N3C4CCC3CNC4)sc2C1)C(C)(C)C (single isomer, unassigned) [Example 159, 1-(2-(3,8-diazabicyclo[3.2.1]octan-8-yl)-6,7-dihydrothiazolo[5,4-c]pyridin-5(4H)-yl)-2,3,3-trimethylbutan-1-one]",0
3,"CC(O)(C(=O)N1CCc2nc(N3C4CCC3CNC4)sc2C1)C1CCCC1 (single isomer, unassigned) [Example 255, 1-(2-(3,8-diazabicyclo[3.2.1]octan-8-yl)-6,7-dihydrothiazolo[5,4-c]pyridin-5(4H)-yl)-2-cyclopentyl-2-hydroxypropan-1-one]",−5

# Same assay, conditions: Mus musculus, mIMCD3, 144 h, 3 μM; mean cyst area, 100% for (DMSO + PGE2) and 0% for DMSO control; 6 days of culture; read-out: % Cyst area after incubation with 3 μM test compound
row,Structure (SMILES),activity at 3 µM [%]
1,"CC(O)(C(=O)N1CCc2nc(N3C4CCC3CNC4)sc2C1)C1CCCC1 (single isomer, unassigned) [Example 254, 1-(2-(3,8-diazabicyclo[3.2.1]octan-8-yl)-6,7-dihydrothiazolo[5,4-c]pyridin-5(4H)-yl)-2-cyclopentyl-2-hydroxypropan-1-one]",-5

# Same assay, conditions: Mus musculus, mIMCD3, 144 h, 10 μM; mean cyst area, 100% for (DMSO + PGE2) and 0% for DMSO control; 6 days of culture; read-out: % Cyst area after incubation with 10 μM test compound
row,Structure (SMILES),activity at 10 µM [%]
1,"O=C(CC1CCC(F)(F)CC1)N1CCc2nc(N3C4CCC3CNC4)sc2C1 [Example 2, 1-(2-(3,8-diazabicyclo[3.2.1]octan-8-yl)-6,7-dihydrothiazolo[5,4-c]pyridin-5(4H)-yl)-2-(4,4-difluorocyclohexyl)ethan-1-one]",2
2,"O=C(CC1CCOCC1)N1CCc2nc(N3C4CCC3CNC4)sc2C1 [Example 3, 1-(2-(3,8-diazabicyclo[3.2.1]octan-8-yl)-6,7-dihydrothiazolo[5,4-c]pyridin-5(4H)-yl)-2-(tetrahydro-2H-pyran-4-yl)ethan-1-one]",13
3,"CC(C)OCC(=O)N1CCc2nc(N3C4CCC3CNC4)sc2C1 [Example 4, 1-(2-(3,8-diazabicyclo[3.2.1]octan-8-yl)-6,7-dihydrothiazolo[5,4-c]pyridin-5(4H)-yl)-2-isopropoxyethan-1-one]",12
4,"O=C(CCc1ccccc1)N1CCc2nc(N3C4CCC3CNC4)sc2C1 [Example 5, 1-(2-(3,8-diazabicyclo[3.2.1]octan-8-yl)-6,7-dihydrothiazolo[5,4-c]pyridin-5(4H)-yl)-3-phenylpropan-1-one]",-5
5,"CC(C)CC(=O)N1CCc2nc(N3C4CCC3CNC4)sc2C1 [Example 9, 1-(2-(3,8-diazabicyclo[3.2.1]octan-8-yl)-6,7-dihydrothiazolo[5,4-c]pyridin-5(4H)-yl)-3-methylbutan-1-one]",0
6,"O=C(CC1CCC1)N1CCc2nc(N3C4CCC3CNC4)sc2C1 [Example 11, 1-(2-(3,8-diazabicyclo[3.2.1]octan-8-yl)-6,7-dihydrothiazolo[5,4-c]pyridin-5(4H)-yl)-2-cyclobutylethan-1-one]",-3
7,"O=C(CC12CC(C1)C2)N1CCc2nc(N3C4CCC3CNC4)sc2C1 [Example 12, 1-(2-(3,8-diazabicyclo[3.2.1]octan-8-yl)-6,7-dihydrothiazolo[5,4-c]pyridin-5(4H)-yl)-2-(bicyclo[1.1.1]pentan-1-yl)ethan-1-one]",-2
8,"CC[C@@H](C)C(=O)N1CCc2nc(N3C4CCC3CNC4)sc2C1 [Example 16, (2R)-1-(2-(3,8-diazabicyclo[3.2.1]octan-8-yl)-6,7-dihydrothiazolo[5,4-c]pyridin-5(4H)-yl)-2-methylbutan-1-one]",-2
9,"CC(C)[C@@H](C)C(=O)N1CCc2nc(N3C4CCC3CNC4)sc2C1 [Example 19, (2R)-1-(2-(3,8-diazabicyclo[3.2.1]octan-8-yl)-6,7-dihydrothiazolo[5,4-c]pyridin-5(4H)-yl)-2,3-dimethylbutan-1-one]",-2
10,"CC(C)C(=O)N1CCc2nc(N3C4CCC3CNC4)sc2C1 [Example 20, 1-(2-(3,8-diazabicyclo[3.2.1]octan-8-yl)-6,7-dihydrothiazolo[5,4-c]pyridin-5(4H)-yl)-2-methylpropan-1-one]",9
11,"O=C(COc1ccc(F)cc1)N1CCc2nc(N3C4CCC3CNC4)sc2C1 [Example 21, 1-(2-(3,8-diazabicyclo[3.2.1]octan-8-yl)-6,7-dihydrothiazolo[5,4-c]pyridin-5(4H)-yl)-2-(4-fluorophenoxy)ethan-1-one]",-1
12,"O=C(C1CCCC1)N1CCc2nc(N3C4CCC3CNC4)sc2C1 [Example 22, (2-(3,8-diazabicyclo[3.2.1]octan-8-yl)-6,7-dihydrothiazolo[5,4-c]pyridin-5(4H)-yl)(cyclopentyl)methanone]",-2
13,"CC(Oc1ccccc1)C(=O)N1CCc2nc(N3C4CCC3CNC4)sc2C1 (centres unmarked) [Example 23, 1-(2-(3,8-diazabicyclo[3.2.1]octan-8-yl)-6,7-dihydrothiazolo[5,4-c]pyridin-5(4H)-yl)-2-phenoxypropan-1-one]",0
14,"O=C(N1CCc2nc(N3C4CCC3CNC4)sc2C1)C(F)(F)C1CCCC1 [Example 24, 1-(2-(3,8-diazabicyclo[3.2.1]octan-8-yl)-6,7-dihydrothiazolo[5,4-c]pyridin-5(4H)-yl)-2-cyclopentyl-2,2-difluoroethan-1-one]",0
15,"O=C(Cc1ccc(F)cc1)N1CCc2nc(N3C4CCC3CNC4)sc2C1 [Example 25, 1-(2-(3,8-diazabicyclo[3.2.1]octan-8-yl)-6,7-dihydrothiazolo[5,4-c]pyridin-5(4H)-yl)-2-(4-fluorophenyl)ethan-1-one]",6
16,"O=C(CC(F)(F)F)N1CCc2nc(N3C4CCC3CNC4)sc2C1 [Example 26, 1-(2-(3,8-diazabicyclo[3.2.1]octan-8-yl)-6,7-dihydrothiazolo[5,4-c]pyridin-5(4H)-yl)-3,3,3-trifluoropropan-1-one]",1
17,"CC(C)C(O)C(=O)N1CCc2nc(N3C4CCC3CNC4)sc2C1 (centres unmarked) [Example 28, 1-(2-(3,8-diazabicyclo[3.2.1]octan-8-yl)-6,7-dihydrothiazolo[5,4-c]pyridin-5(4H)-yl)-2-hydroxy-3-methylbutan-1-one]",3
18,"CC(C)(Oc1ccccc1)C(=O)N1CCc2nc(N3C4CCC3CNC4)sc2C1 [Example 30, 1-(2-(3,8-diazabicyclo[3.2.1]octan-8-yl)-6,7-dihydrothiazolo[5,4-c]pyridin-5(4H)-yl)-2-methyl-2-phenoxypropan-1-one]",1
19,"O=C(N1CCc2nc(N3C4CCC3CNC4)sc2C1)C1(Oc2ccccc2)CC1 [Example 31, (2-(3,8-diazabicyclo[3.2.1]octan-8-yl)-6,7-dihydrothiazolo[5,4-c]pyridin-5(4H)-yl)(1-phenoxycyclopropyl)methanone]",7
20,"CC(C)(C(=O)N1CCc2nc(N3C4CCC3CNC4)sc2C1)C(F)(F)F [Example 32, 1-(2-(3,8-diazabicyclo[3.2.1]octan-8-yl)-6,7-dihydrothiazolo[5,4-c]pyridin-5(4H)-yl)-3,3,3-trifluoro-2,2-dimethylpropan-1-one]",1
21,"O=C(N1CCc2nc(N3C4CCC3CNC4)sc2C1)C1(c2ccccc2)CC1 [Example 33, (2-(3,8-diazabicyclo[3.2.1]octan-8-yl)-6,7-dihydrothiazolo[5,4-c]pyridin-5(4H)-yl)(1-phenylcyclopropyl)methanone]",8
22,"O=C(C(F)C1CCCC1)N1CCc2nc(N3C4CCC3CNC4)sc2C1 (centres unmarked) [Example 34, 1-(2-(3,8-diazabicyclo[3.2.1]octan-8-yl)-6,7-dihydrothiazolo[5,4-c]pyridin-5(4H)-yl)-2-cyclopentyl-2-fluoroethan-1-one]",-2
